# Assay results as given in ChEMBL document CHEMBL4190295, “One-pot three steps cascade synthesis of novel isoandrographolide analogues and their cytotoxic activity” (Eur J Med Chem, 2017).
# Legend:
# Type in all cases: functional, cell-based
# HT-29 = assay: Cytotoxicity against human HT-29 cells assessed as reduction in cell viability by SRB assay
# MCF7 = assay: Cytotoxicity against human MCF7 cells assessed as reduction in cell viability by SRB assay
# P388 = assay: Cytotoxicity against mouse P388 cells assessed as reduction in cell viability by SRB assay
# A549 = assay: Cytotoxicity against human A549 cells assessed as reduction in cell viability by SRB assay
# KB = assay: Cytotoxicity against human KB cells assessed as reduction in cell viability by SRB assay
# [1] = Cytotoxicity against rat ASK cells assessed as reduction in cell viability by SRB assay
Compound,IC50 (HT-29) [µM],IC50 (MCF7) [µM],IC50 (P388) [µM],IC50 (A549) [µM],IC50 (KB) [µM],IC50 [1] [µM]
CC(=O)O[C@@H]1CC[C@]2(C)[C@H](CC[C@]3(CNc4ccccc4F)O[C@H](C4=CCOC4=O)C[C@H]32)[C@]1(C)CO[Si](C)(C)C(C)(C)C,5.59,4.45,4.56,6.1,6.49,3.33
COc1ccc(NC[C@]23CC[C@@H]4[C@](C)(COC(C)=O)[C@H](OC(C)=O)CC[C@@]4(C)[C@@H]2C[C@@H](C2=CCOC2=O)O3)cc1OC,24.1,> 50,28.8,> 50,> 50,> 50
CC(=O)O[C@@H]1CC[C@]2(C)[C@H](CC[C@]3(CNc4ccccc4F)O[C@H](C4=CCOC4=O)C[C@H]32)[C@]1(C)CO[Si](C(C)C)(C(C)C)C(C)C,30.2,15.3,21.4,21,30.8,8.05
CC(=O)O[C@@H]1CC[C@]2(C)[C@H](CC[C@]3(CNc4ccc(Br)cc4)O[C@H](C4=CCOC4=O)C[C@H]32)[C@]1(C)COC(c1ccccc1)(c1ccccc1)c1ccccc1,> 50,> 50,> 50,> 50,> 50,> 50
CC(=O)O[C@@H]1CC[C@]2(C)[C@H](CC[C@]3(CNc4ccccc4F)O[C@H](C4=CCOC4=O)C[C@H]32)[C@]1(C)COC(c1ccccc1)(c1ccccc1)c1ccccc1,> 50,> 50,> 50,> 50,> 50,> 50
COc1ccc(NC[C@]23CC[C@@H]4[C@](C)(COC(c5ccccc5)(c5ccccc5)c5ccccc5)[C@H](OC(C)=O)CC[C@@]4(C)[C@@H]2C[C@@H](C2=CCOC2=O)O3)cc1OC,> 50,23.1,30.5,> 50,> 50,6.51
CC(=O)O[C@@H]1CC[C@]2(C)[C@H](CC[C@]3(CNc4ccccc4)O[C@H](C4=CCOC4=O)C[C@H]32)[C@]1(C)CO[Si](c1ccccc1)(c1ccccc1)C(C)(C)C,> 50,> 50,45.3,> 50,> 50,9.32
COc1ccc(NC[C@]23CC[C@@H]4[C@](C)(CO[Si](C)(C)C(C)(C)C)[C@H](OC(C)=O)CC[C@@]4(C)[C@@H]2C[C@@H](C2=CCOC2=O)O3)cc1OC,6.16,5.4,5.49,5.3,11.5,5.13
CC(=O)OC[C@@]1(C)[C@H]2CC[C@]3(CNc4ccc(Br)cc4)O[C@H](C4=CCOC4=O)C[C@H]3[C@]2(C)CC[C@H]1OC(C)=O,6.09,6.93,7.47,6.14,21.1,8.4
CC(=O)O[C@@H]1CC[C@]2(C)[C@H](CC[C@]3(CNc4cccc(F)c4)O[C@H](C4=CCOC4=O)C[C@H]32)[C@]1(C)CO[Si](c1ccccc1)(c1ccccc1)C(C)(C)C,> 50,> 50,> 50,> 50,> 50,44.8
C=C1CC[C@@H]2[C@](C)(CO)[C@H](O)CC[C@@]2(C)[C@@H]1C/C=C1/C(=O)OC[C@H]1O [ANDROGRAPHOLIDE],9.34,15.4,2.25,27.9,27.4,16.2
Cc1c2ccncc2c(C)c2c1[nH]c1ccccc12 [ELLIPTECINE],2.06,1.53,1.34,1.2,1.87,2.17
COc1ccc(NC[C@]23CC[C@@H]4[C@](C)(CO[Si](C(C)C)(C(C)C)C(C)C)[C@H](OC(C)=O)CC[C@@]4(C)[C@@H]2C[C@@H](C2=CCOC2=O)O3)cc1OC,5.24,4.7,4.98,6.08,17.9,4.61
CC(=O)O[C@@H]1CC[C@]2(C)[C@H](CC[C@]3(CNc4ccccc4)O[C@H](C4=CCOC4=O)C[C@H]32)[C@]1(C)COC(c1ccccc1)(c1ccccc1)c1ccccc1,> 50,> 50,> 50,> 50,> 50,29.1
CC(=O)O[C@@H]1CC[C@]2(C)[C@H](CC[C@]3(CNc4ccc(Br)cc4)O[C@H](C4=CCOC4=O)C[C@H]32)[C@]1(C)CO[Si](C(C)C)(C(C)C)C(C)C,> 50,> 50,40.5,> 50,> 50,29.7
COc1ccc(NC[C@]23CC[C@@H]4[C@](C)(CO[Si](c5ccccc5)(c5ccccc5)C(C)(C)C)[C@H](OC(C)=O)CC[C@@]4(C)[C@@H]2C[C@@H](C2=CCOC2=O)O3)cc1OC,> 50,35.8,27.5,48.6,> 50,9.37
CC(=O)O[C@@H]1CC[C@]2(C)[C@H](CC[C@]3(CNc4ccccc4)O[C@H](C4=CCOC4=O)C[C@H]32)[C@]1(C)CO[Si](C(C)C)(C(C)C)C(C)C,17.5,8.33,6.54,9.43,18.8,6.1
CC(=O)O[C@@H]1CC[C@]2(C)[C@H](CC[C@]3(CNc4cccc(F)c4)O[C@H](C4=CCOC4=O)C[C@H]32)[C@]1(C)CO[Si](C)(C)C(C)(C)C,26.2,8.64,6.44,21.5,27.4,6.1
CC(=O)O[C@@H]1CC[C@]2(C)[C@H](CC[C@]3(CNc4ccccc4F)O[C@H](C4=CCOC4=O)C[C@H]32)[C@]1(C)CO[Si](c1ccccc1)(c1ccccc1)C(C)(C)C,> 50,> 50,> 50,> 50,> 50,39.7
CC(=O)OC[C@@]1(C)[C@H]2CC[C@]3(CNc4ccccc4F)O[C@H](C4=CCOC4=O)C[C@H]3[C@]2(C)CC[C@H]1OC(C)=O,6.5,11.8,7.5,8.45,26.5,27.8
CC(=O)O[C@@H]1CC[C@]2(C)[C@H](CC[C@]3(CNc4ccc(Br)cc4)O[C@H](C4=CCOC4=O)C[C@H]32)[C@]1(C)CO[Si](C)(C)C(C)(C)C,27.7,12.9,6.39,15,25.7,7.35
CC(=O)O[C@@H]1CC[C@]2(C)[C@H](CC[C@]3(CNc4cccc(F)c4)O[C@H](C4=CCOC4=O)C[C@H]32)[C@]1(C)CO[Si](C(C)C)(C(C)C)C(C)C,30.1,12.7,7.95,24.5,32.9,6.91
CC(=O)O[C@@H]1CC[C@]2(C)[C@H](CC[C@]3(CNc4ccc(Br)cc4)O[C@H](C4=CCOC4=O)C[C@H]32)[C@]1(C)CO[Si](c1ccccc1)(c1ccccc1)C(C)(C)C,> 50,> 50,48.3,47.8,> 50,> 50
CC(=O)O[C@@H]1CC[C@]2(C)[C@H](CC[C@]3(CNc4cccc(F)c4)O[C@H](C4=CCOC4=O)C[C@H]32)[C@]1(C)COC(c1ccccc1)(c1ccccc1)c1ccccc1,> 50,> 50,> 50,> 50,> 50,> 50
CC(=O)OC[C@@]1(C)[C@H]2CC[C@]3(CNc4cccc(F)c4)O[C@H](C4=CCOC4=O)C[C@H]3[C@]2(C)CC[C@H]1OC(C)=O,5.87,7.41,6.85,6.52,20.8,22.3
CC(=O)O[C@@H]1CC[C@]2(C)[C@H](CC[C@]3(CNc4ccccc4)O[C@H](C4=CCOC4=O)C[C@H]32)[C@]1(C)CO[Si](C)(C)C(C)(C)C,8.5,5.44,5.19,7.8,21.2,5.94
CC(=O)OC[C@@]1(C)[C@H]2CC[C@]3(CNc4ccccc4)O[C@H](C4=CCOC4=O)C[C@H]3[C@]2(C)CC[C@H]1OC(C)=O,25.7,> 50,40,> 50,> 50,> 50
